Data taken from patent EP0525063B1, “Use of specific fatty acids in the manufacture of a medicament for their Iontophoresis delivery” (priority 1990, dated 1991).
Several values for one entry are separate records, joined by “and”; a condition that tells them apart may be missing. Equal entries are not always repeated. Structures can show the parent of a compound that is named as a salt. Where two headings read alike, the source gives them in different places.

What was measured:
[1] = Method: (§1) Either pig skin or human cadaver skin was used. It was placed in the cell dermal side down.
(§2) The receptor solution completely filled the receptor compartment.
(§3) All skin was stored frozen.
(§4) Each experiment consisted of three phases totaling 66 hours. […]
(§5) The injection volume was 10 »l.

Remark: listed apart in the source
[2] = Iontophoretic drug delivery through skin in vertical flow-through diffusion cell, HPLC of receptor solution (human skin); assay type: in vitro ADME; details: oxymorphone, 0 mg/ml oleic acid (control)
Method: as §1, §2, §3, §4, §5
Tests with enhancer may be compared to the control delivery rate with no oleic acid and using human skin. Tests summarized in Table 4 were done using oxymorphone in the donor compartment.

[3] = delivery of HM-HCl 0.1M, enhancer 100 mg/ml (10.0%), E/W 60/40, current 1 mA

For `CCCCCCCCCC(=O)O` [Capric acid, decanoic acid], which “Enhancement Factor” value [1, 3] is on record?
The value was 3.9.

For `CCCCCCCC(=O)O` [Caprylic acid, octanoic acid], which “Enhancement Factor” value ([1]; delivery of HM-HCl 0.1M, enhancer 100 mg/ml (10.0%), E/W 48/52, current 1 mA) is on record?
Its value is 3.6.

Which results are given for `CCCCCCCCCCCC(=O)O` [Lauric acid, dodecanoic acid]?
Steady State Delivery Rate ± sd [1]: 4838 ± 766 µg/h; Enhancement Factor [1, 3]: 4.0

With `CCCCCCCC/C=C\CCCCCCCC(=O)O` [Oleic acid, cis-9-octadecenoic acid] as the compound, how does the “Enhancement Factor” value ([1]; oleic acid 50 mg/ml (5%), solvent PG/E/W (30/45/20)) read?
The value was 4.3.

What about the “Enhancement Factor” value ([1]; oleic acid 50 mg/ml (5%), solvent PG/E/W (65/20/10)) of the same compound?
Its value is 2.5.

And the “steady state (phase II) delivery rate” value (Scheme B: 1% oleic acid + drug in passive phase I, phase II 0.1 M HM.HCl in DI W without enhancer, current on, pig skin)?
Its value is 2163 ± 354 »g/hr.

And the “delivery by the end of phase I” value (Scheme B: passive phase I (18 h, current off), 1% oleic acid + 0.1 M HM.HCl in E/W 67/33, pig skin)?
The value was “approximately 1800 »g/hr”.

And the “Enhancement Factor” value (delivery of HM-HCl 0.1M, enhancer 10 mg/ml (1.0%), E/W 67/33, current 1 mA)?
Its value is 4.3.

What about the “Enhancement Factor” value (delivery of Oxy-HCl 0.1M, enhancer 5 mg/ml (0.5%), E/W 67/33, current 1 mA, ratio of steady state rates with and without enhancer) of the same compound?
Its value is 4.7.

What about the “Enhancement Factor” value (delivery of oxymorphone-HCl, oleic acid 0.25 mg/ml (0.025%), E/W 48/52, 1 mA, pig skin) of the same compound?
The value was 0.

What about the “Enhancement Factor” value (delivery of oxymorphone-HCl, oleic acid 0.50 mg/ml (0.050%), E/W 48/52, 1 mA, pig skin) of the same compound?
Its value is 1.3.

And the “Enhancement Factor” value (delivery of oxymorphone-HCl, oleic acid 1.0 mg/ml (0.10%), E/W 52/48, 1 mA, pig skin)?
The value was 1.9.

And the “Enhancement Factor” value (delivery of oxymorphone-HCl, oleic acid 2.0 mg/ml (0.20%), E/W 56/44, 1 mA, pig skin)?
The value was 3.2.

What about the “Enhancement Factor” value (delivery of oxymorphone-HCl, oleic acid 2.5 mg/ml (0.25%), E/W 56/44, 1 mA, pig skin, two identical tests on different days) of the same compound?
The value was 4.2 and 4.5.

And the “Enhancement Factor” value (delivery of oxymorphone-HCl, oleic acid 5.0 mg/ml (0.50%), E/W 67/33, 1 mA, pig skin)?
The value was 4.7.

Which results are given for `CN1CC[C@]23c4c5ccc(O)c4O[C@H]2C(=O)CC[C@@]3(O)[C@H]1C5` [Oxy-HCl, oxymorphone hydrochloride]?
Steady State Delivery Rate ± sd ([2]; current 0 mA): 27 ± 25 µg/h; Steady State Delivery Rate ± sd ([2]; current 0.25 mA): 228 ± 55 µg/h; Steady State Delivery Rate ± sd ([2]; current 0.50 mA): 542 ± 62 µg/h; Steady State Delivery Rate ± sd ([2]; current 0.75 mA): 910 ± 117 µg/h; Steady State Delivery Rate ± sd ([2]; current 1.0 mA): 1024 ± 276 µg/h; Steady State Delivery Rate ± sd ([1]; Oxy-HCl 0.1M, no enhancer, E/W 67/33, current 1 mA): 1202 ± 133 µg/h; typical iontophoretic steady state delivery rate ([1]; current of 1 mA, without the addition of a fatty acid, human skin or pig skin): about 1200 »g/hr
